By IC50 is commonly meant the concentration needed to halve the response being measured. For orientation: inhibition means the share of the control response that was lost under treatment.

Among the data in paper PMC5923399 (Marine Drugs, 2018) are IC50 and inhibition values, retold here.

One assay concerns the target T1, rat α3β2 nAChRs (Rattus norvegicus, UniProt P04757+P12390).
T1 construct: expressed in transfected cells; host or cells: Xenopus oocytes (cRNA injection)
Briefly: cell-based.

Another assay addresses T2, GABABR-coupled Cav2.2 (Homo sapiens, UniProt O75899+Q9UBS5).
T2 construct: expressed in transfected cells; host or cells: HEK293T cells, transient transfection; GABAB subunit plasmids from David J. Adams, University of Wollongong
Nature of the assay: cell-based. More on the design: species or system human GABABR and rat Cav2.2.

Another assay has as its system hα3β4 nAChR. The settings on record: cited from earlier work.
A further assay concerns hα4β2 nAChR. The settings on record: cited from earlier work.
In the next assay the test system is hα3β2 nAChR. The settings on record: cited from earlier work.
The next assay concerns the target T3, α7 nAChR (Rattus norvegicus, UniProt Q05941).
T3 construct: expressed in transfected cells; host or cells: Xenopus oocytes (cRNA injection)
The settings on record: cited from earlier work.

In another assay the target is T4, α4β2 nAChR (Rattus norvegicus, UniProt P09483+P12390).
T4 construct: expressed in transfected cells; host or cells: Xenopus oocytes (cRNA injection)
The settings on record: cited from earlier work.

The next assay deals with α3β2 nAChR. The following applies: cited from earlier work.
Another assay has as its target T5, α9α10 nAChR (Rattus norvegicus, UniProt P43144+Q9JLB5).
T5 construct: expressed in transfected cells; host or cells: Xenopus oocytes (cRNA injection)
The settings on record: read-out: IC50 α9α10; cited from earlier work.

Where a SMILES comes first, the peptide text is derived from it. Bridges are numbered along the chain shown (N, C = ends).

T1 sequence (P04757 26-499 limits assumed): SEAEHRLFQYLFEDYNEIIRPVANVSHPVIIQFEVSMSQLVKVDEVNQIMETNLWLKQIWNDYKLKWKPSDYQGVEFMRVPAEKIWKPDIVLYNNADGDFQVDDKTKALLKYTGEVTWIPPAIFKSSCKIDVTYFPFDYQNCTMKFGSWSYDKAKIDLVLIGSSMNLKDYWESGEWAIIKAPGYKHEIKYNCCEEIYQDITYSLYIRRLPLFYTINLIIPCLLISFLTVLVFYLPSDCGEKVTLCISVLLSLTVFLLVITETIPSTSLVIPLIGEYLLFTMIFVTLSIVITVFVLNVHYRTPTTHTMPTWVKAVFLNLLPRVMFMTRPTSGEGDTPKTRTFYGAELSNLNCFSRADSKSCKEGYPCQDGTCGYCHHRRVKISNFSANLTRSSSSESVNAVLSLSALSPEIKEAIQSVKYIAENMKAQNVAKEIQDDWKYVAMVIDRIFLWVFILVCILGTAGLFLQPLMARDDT
T1 sequence (P12390 25-500 limits assumed): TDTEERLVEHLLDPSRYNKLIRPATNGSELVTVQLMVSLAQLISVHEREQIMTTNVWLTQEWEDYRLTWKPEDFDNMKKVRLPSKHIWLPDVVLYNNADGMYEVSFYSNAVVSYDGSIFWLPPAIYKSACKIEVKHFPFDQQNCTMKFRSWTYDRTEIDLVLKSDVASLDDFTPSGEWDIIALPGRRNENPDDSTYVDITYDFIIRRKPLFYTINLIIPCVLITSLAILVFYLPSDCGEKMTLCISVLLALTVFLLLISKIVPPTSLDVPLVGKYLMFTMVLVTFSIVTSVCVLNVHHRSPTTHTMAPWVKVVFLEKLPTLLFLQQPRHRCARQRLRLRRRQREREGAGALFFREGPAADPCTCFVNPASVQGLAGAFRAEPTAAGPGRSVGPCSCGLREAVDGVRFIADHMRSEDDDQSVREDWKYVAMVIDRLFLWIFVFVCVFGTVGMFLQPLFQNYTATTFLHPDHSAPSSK
T2 sequence (Q9UBS5 15-961 limits assumed): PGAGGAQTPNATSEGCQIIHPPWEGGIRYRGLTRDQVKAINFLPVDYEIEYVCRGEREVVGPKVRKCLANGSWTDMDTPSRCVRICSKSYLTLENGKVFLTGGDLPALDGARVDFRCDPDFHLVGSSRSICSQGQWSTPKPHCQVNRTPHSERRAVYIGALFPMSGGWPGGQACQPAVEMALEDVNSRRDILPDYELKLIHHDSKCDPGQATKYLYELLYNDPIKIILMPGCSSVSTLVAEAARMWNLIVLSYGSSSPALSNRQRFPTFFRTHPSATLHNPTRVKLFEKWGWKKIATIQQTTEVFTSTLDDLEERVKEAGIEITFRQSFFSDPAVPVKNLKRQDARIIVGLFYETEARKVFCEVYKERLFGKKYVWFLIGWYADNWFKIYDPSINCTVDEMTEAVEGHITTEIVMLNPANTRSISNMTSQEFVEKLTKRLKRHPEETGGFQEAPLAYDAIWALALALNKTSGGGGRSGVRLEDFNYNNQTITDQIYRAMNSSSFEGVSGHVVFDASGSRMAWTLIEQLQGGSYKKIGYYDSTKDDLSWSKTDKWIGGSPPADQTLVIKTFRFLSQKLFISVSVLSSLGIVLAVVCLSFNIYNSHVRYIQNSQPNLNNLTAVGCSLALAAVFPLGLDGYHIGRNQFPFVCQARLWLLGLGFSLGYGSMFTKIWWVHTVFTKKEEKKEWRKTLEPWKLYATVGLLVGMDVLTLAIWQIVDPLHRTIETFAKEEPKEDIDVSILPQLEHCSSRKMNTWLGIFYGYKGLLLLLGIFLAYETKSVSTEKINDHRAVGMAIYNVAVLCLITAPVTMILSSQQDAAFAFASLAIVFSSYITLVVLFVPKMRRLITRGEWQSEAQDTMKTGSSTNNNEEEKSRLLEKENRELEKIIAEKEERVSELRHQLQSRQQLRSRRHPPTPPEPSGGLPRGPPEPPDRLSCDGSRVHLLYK
T2 sequence (O75899 42-941): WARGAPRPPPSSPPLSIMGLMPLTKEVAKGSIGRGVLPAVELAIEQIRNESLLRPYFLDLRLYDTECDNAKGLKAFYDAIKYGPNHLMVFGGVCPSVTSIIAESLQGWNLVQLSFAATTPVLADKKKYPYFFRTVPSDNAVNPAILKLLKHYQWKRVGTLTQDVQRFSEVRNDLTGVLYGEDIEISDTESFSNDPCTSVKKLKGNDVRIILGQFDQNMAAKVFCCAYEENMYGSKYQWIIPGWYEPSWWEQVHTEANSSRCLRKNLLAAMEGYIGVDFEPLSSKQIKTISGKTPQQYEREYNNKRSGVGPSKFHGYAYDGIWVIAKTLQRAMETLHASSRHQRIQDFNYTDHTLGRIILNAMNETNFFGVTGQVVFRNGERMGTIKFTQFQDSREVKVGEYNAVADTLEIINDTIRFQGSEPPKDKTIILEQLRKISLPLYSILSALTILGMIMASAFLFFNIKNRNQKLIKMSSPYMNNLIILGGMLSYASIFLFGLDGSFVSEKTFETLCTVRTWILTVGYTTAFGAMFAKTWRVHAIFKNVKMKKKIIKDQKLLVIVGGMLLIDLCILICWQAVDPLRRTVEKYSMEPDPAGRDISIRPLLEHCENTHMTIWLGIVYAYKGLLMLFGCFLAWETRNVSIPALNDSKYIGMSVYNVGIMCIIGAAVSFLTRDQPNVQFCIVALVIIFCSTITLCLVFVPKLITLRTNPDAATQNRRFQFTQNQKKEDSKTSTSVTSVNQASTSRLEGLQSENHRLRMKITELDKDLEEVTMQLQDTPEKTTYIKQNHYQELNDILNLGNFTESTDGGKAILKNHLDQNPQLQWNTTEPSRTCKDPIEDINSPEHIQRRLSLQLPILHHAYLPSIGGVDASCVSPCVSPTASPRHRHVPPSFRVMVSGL
T5 sequence (P43144 26-479 limits assumed): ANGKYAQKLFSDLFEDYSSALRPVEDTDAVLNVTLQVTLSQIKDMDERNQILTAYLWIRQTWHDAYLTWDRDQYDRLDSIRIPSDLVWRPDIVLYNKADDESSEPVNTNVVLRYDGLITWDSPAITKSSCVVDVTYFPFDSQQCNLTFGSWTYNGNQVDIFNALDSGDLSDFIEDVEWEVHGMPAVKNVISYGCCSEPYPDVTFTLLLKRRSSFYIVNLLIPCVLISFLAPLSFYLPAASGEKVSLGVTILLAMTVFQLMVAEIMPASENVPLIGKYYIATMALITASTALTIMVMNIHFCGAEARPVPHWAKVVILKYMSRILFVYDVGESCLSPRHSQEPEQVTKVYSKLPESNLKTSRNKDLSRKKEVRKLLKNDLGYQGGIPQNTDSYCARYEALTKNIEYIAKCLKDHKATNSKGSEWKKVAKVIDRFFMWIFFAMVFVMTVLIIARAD
T5 sequence (Q9JLB5 25-447 limits assumed): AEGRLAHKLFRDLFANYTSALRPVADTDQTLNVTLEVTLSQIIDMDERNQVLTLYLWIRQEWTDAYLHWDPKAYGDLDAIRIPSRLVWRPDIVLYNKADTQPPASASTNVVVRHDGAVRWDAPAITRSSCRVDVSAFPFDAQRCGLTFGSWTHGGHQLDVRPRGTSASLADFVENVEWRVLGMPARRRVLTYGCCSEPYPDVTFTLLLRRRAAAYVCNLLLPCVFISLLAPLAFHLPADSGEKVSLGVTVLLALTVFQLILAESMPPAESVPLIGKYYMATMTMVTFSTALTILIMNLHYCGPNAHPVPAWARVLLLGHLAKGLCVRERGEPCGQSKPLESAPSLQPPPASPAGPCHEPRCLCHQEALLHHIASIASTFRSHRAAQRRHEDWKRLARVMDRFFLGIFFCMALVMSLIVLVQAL

In the case of `C[C@@H]1NC(=O)[C@@H]2CCCN2C(=O)[C@H](Cc2c[nH]cn2)NC(=O)[C@H](CO)NC(=O)[C@@H]2CSSC[C@H](NC1=O)C(=O)N[C@@H](CO)C(=O)NCC(=O)N[C@@H](CC(N)=O)C(=O)N[C@@H](CC(N)=O)C(=O)N1CCC[C@H]1C(=O)N[C@@H](Cc1ccc(O)cc1)C(=O)N[C@@H](Cc1ccccc1)C(=O)N[C@H](C(N)=O)CSSC[C@H](NC(=O)CN)C(=O)N2` [Lt1.3-I] (H-GCCSHPACSGNNPYFC-NH2; disulfide 2-16, 3-8), the IC50 on rat α3β2 nAChRs is over 10 µM; on GABABR-coupled Cav2.2, 33.9 nM. In addition, the inhibition at 0.1 µM at GABABR-coupled Cav2.2 (HEK-293T, read-out: inhibition of peak current amplitude, SEM) was determined as 28 ± 3.8%. The compound `C[C@@H]1NC(=O)CNC(=O)[C@H](CO)NC(=O)[C@@H]2CSSC[C@H](NC(=O)CN)C(=O)N[C@@H](CSSC[C@@H](C(N)=O)NC(=O)[C@H](Cc3ccccc3)NC(=O)[C@H](Cc3ccc(O)cc3)NC(=O)[C@@H]3CCCN3C(=O)[C@H](CC(N)=O)NC1=O)C(=O)N[C@@H](CO)C(=O)N[C@@H](Cc1c[nH]cn1)C(=O)N1CCC[C@H]1C(=O)N[C@@H](C)C(=O)N2` [Lt1.3[N11A]] (H-GCCSHPACSGANPYFC-NH2; disulfide 2-8, 3-16; N-terminus assumed) yielded an IC50 on rat α3β2 nAChRs of over 10 µM. On rat α3β2 nAChRs, `C[C@@H]1NC(=O)[C@@H]2CSSC[C@H](NC(=O)CN)C(=O)N[C@@H](CSSC[C@@H](C(N)=O)NC(=O)[C@H](Cc3ccccc3)NC(=O)[C@H](Cc3ccc(O)cc3)NC(=O)[C@@H]3CCCN3C(=O)[C@H](CC(N)=O)NC(=O)[C@H](CC(N)=O)NC(=O)CNC1=O)C(=O)N[C@@H](CO)C(=O)N[C@@H](Cc1c[nH]cn1)C(=O)N1CCC[C@H]1C(=O)N[C@@H](C)C(=O)N2` [Lt1.3[S9A]] showed an IC50 of 0.0354 µM.

Regarding “G CC SHPA C AGNNQHI C * (bicyclic or more) [GIC, α4/7-CTx targeting nAChR α3β2]”, the IC50 in the assay on hα3β4 nAChR is 755 nM; in the assay on hα4β2 nAChR it was 309 nM; with hα3β2 nAChR it was 1.1 nM. “G CC SNPV C HLEHSNL C * (bicyclic or more) (GCCSNPVCHLEHSNLC) [MII, α4/7-CTx targeting nAChR α3β2]”: the IC50 was about 200 nM with α7 nAChR and 548 nM in the assay with α4β2 nAChR. Take “G CC SNPV C HLEHSNL C * (bicyclic or more) [MII, α4/7-CTx targeting nAChR α3β2]”: the IC50 with α3β2 nAChR is 0.5 nM. For “GG CC SHPA C AANNQD(sTy) C * (bicyclic or more) [AnIB, α4/7-CTx targeting nAChR α3β2]”, the IC50 in the assay with α3β2 nAChR was 0.3 nM. As to “IRDE CC SNPA C RVNNOHV C RRR (bicyclic or more) [ArIA, α4/7-CTx targeting nAChR α3β2]”, the IC50 in the assay on α3β2 nAChR is 18 nM. Consider “PE CC THPA C HVSHPEL C * (bicyclic or more) [Mr1.7, α4/7-CTx targeting nAChR α3β2]”, for which the IC50 in the assay on α3β2 nAChR is 53.1 nM; at α9α10 nAChR, 188 nM. As for “SG CC SNPA C RVNNPNI C * (bicyclic or more) (SGCCSNPACRVNNPNIC) [LsIA, α4/7-CTx targeting nAChR α3β2]”, the IC50 with α7 nAChR is 10.1 nM.

Regarding “SG CC SNPA C RVNNPNI C * (bicyclic or more) [LsIA, α4/7-CTx targeting nAChR α3β2]”, the concentration for half-maximal inhibition (IC50) with α3β2 nAChR is 10.3 nM.
